Source: paper PMC12627810 (Nature Communications, 2025)
“And” between values parts separate entries of the source, which are not always exact repeats. Identical values can stand only once. Like-named read-outs stand apart in the source and are kept apart here.

Key:
SERT WT [1] = molecular target: T1, SERT WT (Homo sapiens, UniProt P31645); experiment: [3H]5-HT uptake inhibition, intact COS-7 cells expressing SERT WT; type: cell-based
SERT V86Anap (purified) = experiment: Anap fluorescence emission spectra, SERT V86Anap; design: species or system human; conditions: 200 nM ligand
SERT F556Anap (purified) [2] = experiment: Anap fluorescence emission spectra, SERT F556Anap; design: species or system human; conditions: 200 nM ligand
SERT F556Anap (purified) [3] = experiment: Real-time Anap fluorescence measurements, SERT F556Anap; type: binding, human; conditions: 200 nM vilazodone after 30 min preincubation with 100 nM imipramine, Na+
SERT WT [4] = molecular target: T1, SERT WT; conditions: previous study; cited from earlier work
SERT allosteric site = conditions: S1-bound [3H]imipramine; cited from earlier work
[5] = test system: SERT-expressing membranes; conditions: cited from earlier work

T1 sequence (P31645 whole entry): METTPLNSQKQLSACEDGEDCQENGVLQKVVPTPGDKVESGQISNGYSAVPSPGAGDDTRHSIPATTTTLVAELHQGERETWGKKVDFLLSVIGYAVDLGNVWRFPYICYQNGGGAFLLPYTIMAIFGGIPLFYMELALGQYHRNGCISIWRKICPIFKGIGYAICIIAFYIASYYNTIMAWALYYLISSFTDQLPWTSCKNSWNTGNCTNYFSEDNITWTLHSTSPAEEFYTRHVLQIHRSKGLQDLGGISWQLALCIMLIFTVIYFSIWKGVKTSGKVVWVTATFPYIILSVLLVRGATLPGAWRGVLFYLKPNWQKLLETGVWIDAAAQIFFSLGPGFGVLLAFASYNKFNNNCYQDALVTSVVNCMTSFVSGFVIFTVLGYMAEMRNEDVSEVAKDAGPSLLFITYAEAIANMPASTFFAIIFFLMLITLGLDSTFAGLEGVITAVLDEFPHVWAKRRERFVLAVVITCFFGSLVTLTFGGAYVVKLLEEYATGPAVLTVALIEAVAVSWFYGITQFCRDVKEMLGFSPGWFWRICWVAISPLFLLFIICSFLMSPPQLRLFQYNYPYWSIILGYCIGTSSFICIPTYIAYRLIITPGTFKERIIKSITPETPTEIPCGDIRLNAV

- Hill coefficient (vilazodone) (SERT WT [1]; SERT WT): > 1
- 5-HT uptake inhibition by vilazodone in presence of Fab 15B8 (SERT WT [1]; preincubation with 100 nM Fab 15B8 vs buffer, whole cells): unchanged
SMILES: N#Cc1ccc2[nH]cc(CCCCN3CCN(c4ccc5oc(C(N)=O)cc5c4)CC3)c2c1 [vilazodone]
- change of V86Anap fluorescence emission (SERT V86Anap (purified); 200 mM K+): increasing the fluorescence
- change of V86Anap fluorescence emission (SERT V86Anap (purified); 200 mM Na+): decreased the fluorescence
- change of F556Anap fluorescence emission (SERT F556Anap (purified) [2]; 200 mM K+): red-shifted and increase in fluorescence
- change of F556Anap fluorescence emission (SERT F556Anap (purified) [2]; 200 mM NMDG+): decrease in quantum yield and a blue-shift
- change of F556Anap fluorescence emission (SERT F556Anap (purified) [2]; 200 mM Na+): large decrease in intensity accompanied by a blue-shift
- τ of time-dependent change in fluorescence, imipramine-bound SERT (SERT F556Anap (purified) [3]): 0.8 ± 0.18 min
- Hill coefficient of inhibition of [3H]5-HT uptake (SERT WT [4]): 1.8 and ~ 1.8
- allosteric potency (inhibition of dissociation of pre-bound [3H]imipramine) (SERT allosteric site): 14 nM and ~ 14 nM
- affinity, SERT-expressing membranes ([5]; K+): 36.7 nM
- affinity, SERT-expressing membranes ([5]; Na+): 5.8 nM
